Results from the supplement of paper PMC10307832.

Tests used:
Assay in all cases: relative viability (nuclei count vs DMSO), 5 days (fraction); higher = more cells survive
NCI-H727 = system: NCI-H727
Summary of the method: (§1)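 Lung cancer cell lines were seeded in 1536-well plates and dosed by pin tool the next day, with either a single drug or a fixed anchor-drug dose combined with five library-drug doses (not always all listed) spaced in √10 steps. Five days later, one step fixed the cells and stained their nuclei (final 0.05% Triton X-100, 1% formaldehyde, 1 ug/ml Hoechst), and nuclei were counted on 4× images. Relative viability is the nuclei count in treated wells divided by the count in vehicle wells, and each value is the median of duplicate plates.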

COR-L 105 = system: COR-L 105
Summary of the method: as §1

ABC-1 = system: ABC-1
Summary of the method: as §1

HCC-366 = system: HCC-366
Summary of the method: as §1

NCI-H2009 = system: NCI-H2009
Summary of the method: as §1

HARA = system: HARA
Summary of the method: as §1

LU99A = system: LU99A
Summary of the method: as §1

LK-2 = system: LK-2
Summary of the method: as §1

NCI-H2170 = system: NCI-H2170
Summary of the method: as §1

NCI-H1437 = system: NCI-H1437
Summary of the method: as §1

EKVX = system: EKVX
Summary of the method: as §1

NCI-H1650 = system: NCI-H1650
Summary of the method: as §1

BEN = system: BEN
Summary of the method: as §1

NCI-H441 = system: NCI-H441
Summary of the method: as §1

201T = system: 201T
Summary of the method: as §1

PC-14 = system: PC-14
Summary of the method: as §1

NCI-H661 = system: NCI-H661
Summary of the method: as §1

CAL-12T = system: CAL-12T
Summary of the method: as §1

NCI-H3122 = system: NCI-H3122
Summary of the method: as §1

COR-L23 = system: COR-L23
Summary of the method: as §1

NCI-H1666 = system: NCI-H1666
Summary of the method: as §1

NCI-H838 = system: NCI-H838
Summary of the method: as §1

Q: Which results are given for `NC(=O)Nc1cc(-c2cccc(F)c2)sc1C(=O)N[C@H]1CCCNC1` [AZD7762] + C[C@@H](Oc1cc(-c2cnn(C3CCNCC3)c2)cnc1N)c1c(Cl)ccc(F)c1Cl [Crizotinib] (partner 1 µM)?
A: relative viability (NCI-H727; first compound 0.01 µM): 0.984; relative viability (NCI-H727; first compound 0.03162 µM): 0.865; relative viability (NCI-H727; first compound 0.1 µM): 0.758; relative viability (NCI-H727; first compound 0.3162 µM): 0.519; relative viability (NCI-H727; first compound 1 µM): 0.259; relative viability (COR-L 105; first compound 0.01 µM): 0.877; relative viability (COR-L 105; first compound 0.03162 µM): 0.772; relative viability (COR-L 105; first compound 0.1 µM): 0.591; relative viability (COR-L 105; first compound 0.3162 µM): 0.406; relative viability (COR-L 105; first compound 1 µM): 0.271; relative viability (ABC-1; first compound 0.01 µM): 1.1; relative viability (ABC-1; first compound 0.03162 µM): 1.56; relative viability (ABC-1; first compound 0.1 µM): 0.842; relative viability (ABC-1; first compound 0.3162 µM): 0.49; relative viability (ABC-1; first compound 1 µM): 0.13; relative viability (HCC-366; first compound 0.01 µM): 0.678; relative viability (HCC-366; first compound 0.03162 µM): 0.478; relative viability (HCC-366; first compound 0.1 µM): 0.542; relative viability (HCC-366; first compound 0.3162 µM): 0.323; relative viability (HCC-366; first compound 1 µM): 0.0525; relative viability (NCI-H2009; first compound 0.01 µM): 1.04; relative viability (NCI-H2009; first compound 0.03162 µM): 1.13; relative viability (NCI-H2009; first compound 0.1 µM): 1.07; relative viability (NCI-H2009; first compound 0.3162 µM): 0.954; relative viability (NCI-H2009; first compound 1 µM): 0.38; relative viability (HARA; first compound 0.01 µM): 1.11; relative viability (HARA; first compound 0.03162 µM): 0.98; relative viability (HARA; first compound 0.1 µM): 0.894; relative viability (HARA; first compound 0.3162 µM): 1.01; relative viability (HARA; first compound 1 µM): 0.25; relative viability (LU99A; first compound 0.01 µM): 0.725; relative viability (LU99A; first compound 0.03162 µM): 0.67; relative viability (LU99A; first compound 0.1 µM): 0.602; relative viability (LU99A; first compound 0.3162 µM): 0.587; relative viability (LU99A; first compound 1 µM): 0.228; relative viability (LK-2; first compound 0.01 µM): 0.203; relative viability (LK-2; first compound 0.03162 µM): 0.221; relative viability (LK-2; first compound 0.1 µM): 0.225; relative viability (LK-2; first compound 0.3162 µM): 0.203; relative viability (LK-2; first compound 1 µM): 0.228; relative viability (NCI-H2170; first compound 0.01 µM): 1.2; relative viability (NCI-H2170; first compound 0.03162 µM): 1.26; relative viability (NCI-H2170; first compound 0.1 µM): 1.24; relative viability (NCI-H2170; first compound 0.3162 µM): 1.28; relative viability (NCI-H2170; first compound 1 µM): 1; relative viability (NCI-H1437; first compound 0.01 µM): 0.955; relative viability (NCI-H1437; first compound 0.03162 µM): 0.787; relative viability (NCI-H1437; first compound 0.1 µM): 1.01; relative viability (NCI-H1437; first compound 0.3162 µM): 0.869; relative viability (NCI-H1437; first compound 1 µM): 1.02; relative viability (EKVX; first compound 0.01 µM): 0.875; relative viability (EKVX; first compound 0.03162 µM): 1.03; relative viability (EKVX; first compound 0.1 µM): 0.874; relative viability (EKVX; first compound 0.3162 µM): 0.798; relative viability (EKVX; first compound 1 µM): 0.412; relative viability (NCI-H1650; first compound 0.01 µM): 1.18; relative viability (NCI-H1650; first compound 0.03162 µM): 1.03; relative viability (NCI-H1650; first compound 0.1 µM): 0.864; relative viability (NCI-H1650; first compound 0.3162 µM): 0.603; relative viability (NCI-H1650; first compound 1 µM): 0.207; relative viability (BEN; first compound 0.01 µM): 0.911; relative viability (BEN; first compound 0.03162 µM): 0.924; relative viability (BEN; first compound 0.1 µM): 0.827; relative viability (BEN; first compound 0.3162 µM): 0.859; relative viability (BEN; first compound 1 µM): 0.616; relative viability (NCI-H441; first compound 0.01 µM): 1.15; relative viability (NCI-H441; first compound 0.03162 µM): 0.745; relative viability (NCI-H441; first compound 0.1 µM): 1.15; relative viability (NCI-H441; first compound 0.3162 µM): 0.995; relative viability (NCI-H441; first compound 1 µM): 0.89; relative viability (201T; first compound 0.01 µM): 0.969; relative viability (201T; first compound 0.03162 µM): 1.02; relative viability (201T; first compound 0.1 µM): 1.03; relative viability (201T; first compound 0.3162 µM): 1.04; relative viability (201T; first compound 1 µM): 1.16; relative viability (PC-14; first compound 0.01 µM): 0.943; relative viability (PC-14; first compound 0.03162 µM): 0.859; relative viability (PC-14; first compound 0.1 µM): 0.922; relative viability (PC-14; first compound 0.3162 µM): 0.81; relative viability (PC-14; first compound 1 µM): 0.41; relative viability (NCI-H661; first compound 0.01 µM): 0.952; relative viability (NCI-H661; first compound 0.03162 µM): 0.87; relative viability (NCI-H661; first compound 0.1 µM): 1.08; relative viability (NCI-H661; first compound 0.3162 µM): 0.99; relative viability (NCI-H661; first compound 1 µM): 0.886; relative viability (CAL-12T; first compound 0.01 µM): 0.735; relative viability (CAL-12T; first compound 0.03162 µM): 0.554; relative viability (CAL-12T; first compound 0.1 µM): 0.486; relative viability (CAL-12T; first compound 0.3162 µM): 0.33; relative viability (CAL-12T; first compound 1 µM): 0.105; relative viability (NCI-H3122; first compound 0.01 µM): 0.266; relative viability (NCI-H3122; first compound 0.03162 µM): 0.296; relative viability (NCI-H3122; first compound 0.1 µM): 0.329; relative viability (NCI-H3122; first compound 0.3162 µM): 0.258; relative viability (NCI-H3122; first compound 1 µM): 0.283; relative viability (COR-L23; first compound 0.01 µM): 0.775; relative viability (COR-L23; first compound 0.03162 µM): 0.656; relative viability (COR-L23; first compound 0.1 µM): 0.616; relative viability (COR-L23; first compound 0.3162 µM): 0.45; relative viability (COR-L23; first compound 1 µM): 0.117; relative viability (NCI-H1666; first compound 0.01 µM): 1.58; relative viability (NCI-H1666; first compound 0.03162 µM): 1.16; relative viability (NCI-H1666; first compound 0.1 µM): 1.23; relative viability (NCI-H1666; first compound 0.3162 µM): 0.993; relative viability (NCI-H1666; first compound 1 µM): 0.695; relative viability (NCI-H838; first compound 0.01 µM): 0.809; relative viability (NCI-H838; first compound 0.03162 µM): 0.781; relative viability (NCI-H838; first compound 0.1 µM): 0.762; relative viability (NCI-H838; first compound 0.3162 µM): 0.687; relative viability (NCI-H838; first compound 1 µM): 0.301
